Assay results taken from patent publication US20080009418A1, “Selective Inhibitors” (Alchemia LTD., priority 2004, published 2008).

What was measured:
Human Melanocortin (MC3) = biological target: T1, Human Melanocortin (MC3) (Homo sapiens, UniProt P41968); experiment: Radioligand binding, human melanocortin MC3 membranes, FlashPlate, [125I]-NDP-αMSH; conditions: compound at 10 μM, [125I]-NDP-αMSH
T1 construct: purchased Perkin Elmer Biosignal
Outline: (§1)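 Cloned human receptor membranes were coated onto FlashPlate wells and incubated with radioligand and compound (added from a 0.5 mM DMSO daughter plate) for 1 hour at room temperature in the dark. Scintillation counting gave percent inhibition, with DMSO defining total and reference ligand defining non-specific binding.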

Human μ-opioid (MOP) = biological target: T2, Human μ-opioid (MOP) (Homo sapiens, UniProt P35372); experiment: Radioligand binding, human μ-opioid (MOP) membranes, FlashPlate, [3H]-Naloxone; conditions: compound at 10 μM, [3H]-Naloxone
T2 construct: purchased Perkin Elmer Biosignal
T2 sequence (P35372 whole entry): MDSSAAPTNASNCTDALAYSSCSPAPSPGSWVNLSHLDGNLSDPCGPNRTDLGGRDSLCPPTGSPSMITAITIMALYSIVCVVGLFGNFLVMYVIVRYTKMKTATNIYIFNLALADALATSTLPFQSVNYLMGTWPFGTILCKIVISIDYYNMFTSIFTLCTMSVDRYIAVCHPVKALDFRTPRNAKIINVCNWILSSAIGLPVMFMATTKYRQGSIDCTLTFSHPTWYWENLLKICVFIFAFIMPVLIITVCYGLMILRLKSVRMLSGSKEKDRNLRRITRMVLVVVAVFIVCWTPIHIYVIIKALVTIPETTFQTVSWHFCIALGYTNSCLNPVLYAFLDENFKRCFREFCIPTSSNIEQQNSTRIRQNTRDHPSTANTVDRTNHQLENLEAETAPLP
Outline: as §1

[1] = biological target: T3, Human melanin-concentrating hormone (MCH1) (Homo sapiens, UniProt Q99705); experiment: Radioligand binding, human melanin-concentrating hormone MCH1 membranes, FlashPlate, [125I]-S36057; conditions: compound at 10 μM
T3 construct: purchased Perkin Elmer Biosignal
T3 sequence (Q99705 whole entry): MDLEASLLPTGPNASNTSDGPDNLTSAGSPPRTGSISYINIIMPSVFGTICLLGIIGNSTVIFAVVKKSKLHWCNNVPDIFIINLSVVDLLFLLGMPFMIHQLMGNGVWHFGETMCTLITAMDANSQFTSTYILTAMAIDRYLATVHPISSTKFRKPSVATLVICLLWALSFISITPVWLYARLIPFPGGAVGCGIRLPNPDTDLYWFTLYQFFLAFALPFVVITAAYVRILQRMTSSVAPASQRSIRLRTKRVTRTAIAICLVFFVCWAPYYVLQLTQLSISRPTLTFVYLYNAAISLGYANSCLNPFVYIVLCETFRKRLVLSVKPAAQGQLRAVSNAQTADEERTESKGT
Outline: as §1

Human κ-Opioid (KOP) = biological target: T4, Human κ-Opioid (KOP) (Homo sapiens, UniProt P41145); experiment: Radioligand binding, human κ-opioid (KOP) membranes, filtration, [3H]-Diprenorphine; conditions: compound at 10 μM, [3H]-Diprenorphine
T4 construct: purchased Perkin Elmer Biosignal
T4 sequence (P41145 whole entry): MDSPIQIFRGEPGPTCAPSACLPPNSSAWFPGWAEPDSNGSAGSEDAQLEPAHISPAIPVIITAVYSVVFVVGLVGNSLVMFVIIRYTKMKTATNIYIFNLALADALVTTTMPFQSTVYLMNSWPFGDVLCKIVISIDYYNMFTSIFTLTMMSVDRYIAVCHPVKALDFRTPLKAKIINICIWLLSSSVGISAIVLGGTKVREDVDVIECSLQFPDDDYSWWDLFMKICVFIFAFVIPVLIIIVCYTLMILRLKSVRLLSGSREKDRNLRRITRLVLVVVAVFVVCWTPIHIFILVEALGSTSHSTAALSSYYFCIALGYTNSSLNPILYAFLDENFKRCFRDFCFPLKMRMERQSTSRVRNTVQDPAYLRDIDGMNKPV
Outline: (§2)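 Percent inhibition of radioligand binding measured on recombinant human membranes: NK1 with [125I]-Substance P, KOP with [3H]-Diprenorphine. Incubation 1 h at room temperature, then harvest onto 0.3% PEI-soaked filters, cold Tris-HCl pH 7.4 washes and scintillation counting; non-specific binding from reference ligand wells.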

Human melanocortin (MC5) = biological target: T5, Human melanocortin (MC5) (Homo sapiens, UniProt P33032); experiment: Radioligand binding, human melanocortin MC5 membranes, FlashPlate, [125I]-NDP-αMSH; conditions: compound at 10 μM, [125I]-NDP-αMSH
T5 construct: purchased Perkin Elmer Biosignal
T5 sequence (P33032 whole entry): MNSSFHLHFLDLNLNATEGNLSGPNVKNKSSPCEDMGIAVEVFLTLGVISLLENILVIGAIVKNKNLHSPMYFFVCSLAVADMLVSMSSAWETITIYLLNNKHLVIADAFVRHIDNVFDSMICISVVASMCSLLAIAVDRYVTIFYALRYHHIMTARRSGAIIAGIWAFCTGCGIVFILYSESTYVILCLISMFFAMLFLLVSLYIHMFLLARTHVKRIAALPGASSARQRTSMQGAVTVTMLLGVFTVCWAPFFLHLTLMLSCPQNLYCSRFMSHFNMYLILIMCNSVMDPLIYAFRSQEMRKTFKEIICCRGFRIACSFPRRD
Outline: as §1

Human Melanocortin (MC4) = biological target: T6, Human Melanocortin (MC4) (Homo sapiens, UniProt P32245); experiment: Radioligand binding, human melanocortin MC4 membranes, FlashPlate, [125I]-NDP-αMSH; conditions: compound at 10 μM, [125I]-NDP-αMSH
T6 construct: purchased Perkin Elmer Biosignal
T6 sequence (P32245 whole entry): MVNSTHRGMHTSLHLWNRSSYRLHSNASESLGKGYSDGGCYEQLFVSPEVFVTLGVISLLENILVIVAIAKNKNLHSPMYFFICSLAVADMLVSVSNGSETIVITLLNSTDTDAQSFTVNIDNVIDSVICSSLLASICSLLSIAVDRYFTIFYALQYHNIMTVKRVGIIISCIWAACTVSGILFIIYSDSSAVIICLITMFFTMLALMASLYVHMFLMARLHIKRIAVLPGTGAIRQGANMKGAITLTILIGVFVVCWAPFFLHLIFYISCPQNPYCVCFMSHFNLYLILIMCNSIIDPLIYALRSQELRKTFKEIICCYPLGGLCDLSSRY
Outline: as §1

Human opioid (ORL1) = biological target: T7, Human opioid (ORL1) (Homo sapiens, UniProt P41146); experiment: Radioligand binding, human opioid ORL1 membranes, FlashPlate, [125I]-Nociceptin; conditions: compound at 10 μM, [125I]-Nociceptin
T7 construct: purchased Perkin Elmer Biosignal
T7 sequence (P41146 whole entry): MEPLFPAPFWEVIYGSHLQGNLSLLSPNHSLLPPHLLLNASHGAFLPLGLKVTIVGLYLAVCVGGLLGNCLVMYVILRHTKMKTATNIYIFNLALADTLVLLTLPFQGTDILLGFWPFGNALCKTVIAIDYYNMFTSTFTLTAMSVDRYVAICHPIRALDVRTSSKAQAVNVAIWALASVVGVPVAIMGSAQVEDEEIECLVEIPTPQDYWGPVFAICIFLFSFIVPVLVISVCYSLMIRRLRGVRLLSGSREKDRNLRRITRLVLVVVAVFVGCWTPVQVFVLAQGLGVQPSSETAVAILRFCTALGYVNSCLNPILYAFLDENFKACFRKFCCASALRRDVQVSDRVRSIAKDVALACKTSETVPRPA
Outline: as §1

[2] = biological target: T8, Human neuropeptide Y (NPY-Y1) (Homo sapiens, UniProt P25929); experiment: Radioligand binding, human neuropeptide Y NPY-Y1 membranes, FlashPlate, [125I]-PYY; conditions: compound at 10 μM, [125I]-PYY
T8 construct: purchased Perkin Elmer Biosignal
T8 sequence (P25929 1-384): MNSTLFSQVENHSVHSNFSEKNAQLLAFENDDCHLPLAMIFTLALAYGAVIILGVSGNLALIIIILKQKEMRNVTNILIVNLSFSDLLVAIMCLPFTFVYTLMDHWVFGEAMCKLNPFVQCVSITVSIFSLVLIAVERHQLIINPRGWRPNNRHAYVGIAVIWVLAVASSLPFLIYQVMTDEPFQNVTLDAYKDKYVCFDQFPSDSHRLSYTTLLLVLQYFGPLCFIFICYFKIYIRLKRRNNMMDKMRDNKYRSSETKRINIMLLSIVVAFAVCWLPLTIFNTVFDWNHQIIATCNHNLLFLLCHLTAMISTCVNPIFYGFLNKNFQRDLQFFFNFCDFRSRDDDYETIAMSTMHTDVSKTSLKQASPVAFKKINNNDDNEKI
Outline: as §1

Mouse urotensin (mUR2) = biological target: T9, Mouse urotensin (mUR2) (Mus musculus, UniProt Q8VIH9); experiment: Radioligand binding, mouse urotensin mUR2 membranes, FlashPlate, [125I]-Urotensin II; conditions: compound at 10 μM, [125I]-Urotensin II
T9 construct: purchased Perkin Elmer Biosignal
T9 sequence (Q8VIH9 1-385): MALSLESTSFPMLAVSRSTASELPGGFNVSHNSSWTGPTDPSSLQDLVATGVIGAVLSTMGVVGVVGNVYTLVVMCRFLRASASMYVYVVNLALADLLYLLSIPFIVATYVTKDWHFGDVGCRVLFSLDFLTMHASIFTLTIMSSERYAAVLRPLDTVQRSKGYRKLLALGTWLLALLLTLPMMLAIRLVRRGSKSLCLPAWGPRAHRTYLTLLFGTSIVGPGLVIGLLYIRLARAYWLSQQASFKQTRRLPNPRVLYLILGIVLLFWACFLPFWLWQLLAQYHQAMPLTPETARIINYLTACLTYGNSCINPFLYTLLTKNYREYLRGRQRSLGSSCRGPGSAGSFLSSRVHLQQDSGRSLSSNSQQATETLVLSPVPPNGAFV
Outline: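 Cloned mouse urotensin (mUR2) receptor membranes from Perkin Elmer Biosignal were immobilized in FlashPlate microplates using a proprietary coating. Each well got 19.5 μl buffer, then 0.5 μl of DMSO, reference ligand, or compound. Adding 5 μl of [125I]-Urotensin II, diluted to 5× final concentration in binding buffer, started binding. Plates were sealed with TopSeal-A and incubated 1 hour at room temperature in the dark. Wells were counted for 30 seconds each on a TopCount after a 60-second delay, and percentage inhibition was calculated.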

Human neurokinin (NK1) = biological target: T10, Human neurokinin (NK1) (Homo sapiens, UniProt P25103); experiment: Radioligand binding, human neurokinin NK1 membranes, filtration, [125I]-Substance P; conditions: compound at 10 μM, [125I]-Substance P
T10 construct: purchased Perkin Elmer Biosignal
T10 sequence (P25103 whole entry): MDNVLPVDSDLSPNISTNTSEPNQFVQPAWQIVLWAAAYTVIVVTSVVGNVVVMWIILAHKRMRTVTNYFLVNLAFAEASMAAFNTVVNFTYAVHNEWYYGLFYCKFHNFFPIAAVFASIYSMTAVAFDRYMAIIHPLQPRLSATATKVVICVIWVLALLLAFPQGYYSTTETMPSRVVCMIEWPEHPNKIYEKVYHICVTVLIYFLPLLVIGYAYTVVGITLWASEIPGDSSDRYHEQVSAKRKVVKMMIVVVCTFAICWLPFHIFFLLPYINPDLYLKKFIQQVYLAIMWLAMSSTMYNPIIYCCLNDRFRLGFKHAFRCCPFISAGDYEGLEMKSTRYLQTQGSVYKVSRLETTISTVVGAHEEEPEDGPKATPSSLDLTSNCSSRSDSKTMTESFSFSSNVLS
Outline: as §2

Human δ-opioid (DOP) = biological target: T11, Human δ-opioid (DOP) (Homo sapiens, UniProt P41143); experiment: Radioligand binding, human δ-opioid (DOP) membranes, FlashPlate, [3H]-Bremazocine; conditions: compound at 10 μM, [3H]-Bremazocine
T11 construct: purchased Perkin Elmer Biosignal
T11 sequence (P41143 whole entry): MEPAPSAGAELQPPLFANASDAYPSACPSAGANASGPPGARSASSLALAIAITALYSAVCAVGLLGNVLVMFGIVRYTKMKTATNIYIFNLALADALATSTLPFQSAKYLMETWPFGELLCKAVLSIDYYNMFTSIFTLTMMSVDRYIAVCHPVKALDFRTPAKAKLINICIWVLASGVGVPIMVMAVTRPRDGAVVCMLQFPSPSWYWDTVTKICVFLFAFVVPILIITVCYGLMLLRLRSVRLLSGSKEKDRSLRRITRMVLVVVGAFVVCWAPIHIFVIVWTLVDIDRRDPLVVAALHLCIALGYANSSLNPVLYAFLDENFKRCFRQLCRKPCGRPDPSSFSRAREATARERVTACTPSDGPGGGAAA
Outline: as §1

T1 sequence (P41968 whole entry): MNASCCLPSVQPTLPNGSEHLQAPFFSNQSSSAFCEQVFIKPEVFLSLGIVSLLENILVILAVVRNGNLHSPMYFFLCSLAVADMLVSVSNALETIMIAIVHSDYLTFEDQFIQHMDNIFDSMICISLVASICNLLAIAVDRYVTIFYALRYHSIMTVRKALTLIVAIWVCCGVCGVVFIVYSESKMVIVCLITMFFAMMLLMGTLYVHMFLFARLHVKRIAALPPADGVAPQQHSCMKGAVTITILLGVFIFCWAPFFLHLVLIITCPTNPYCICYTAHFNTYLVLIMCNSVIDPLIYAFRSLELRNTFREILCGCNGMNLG

NCCCC(=O)NC1C(OCc2ccc(Cl)cc2)OC(COCc2ccccc2)C(O)C1OCc1ccccc1 (single isomer, unassigned) [compound 503] was tested. Which “A3: inhibition of radioligand binding, human melanocortin (MC3)” value (Human Melanocortin (MC3)) did it give?
The value was “− (“−” indicates less than 50% inhibition at 10 μM)”.

And the “A7: inhibition of radioligand binding, human μ-opioid (MOP)” value (Human μ-opioid (MOP))?
Its value is “− (“−” indicates less than 50% inhibition at 10 μM)”.

What about the “A6: inhibition of radioligand binding, human melanin-concentrating hormone (MCH1)” value ([1]; [125I]-S36057) of the same compound?
The value was “− (“−” indicates less than 50% inhibition at 10 μM)”.

And the “A2: inhibition of radioligand binding, human κ-opioid (KOP)” value (Human κ-Opioid (KOP))?
The value was “− (“−” indicates less than 50% inhibition at 10 μM)”.

What about the “A5: inhibition of radioligand binding, human melanocortin (MC5)” value (Human melanocortin (MC5); 10 µM) of the same compound?
The value was “+ (“+” indicates greater than 50% inhibition at 10 μM)”.

What about the “A4: inhibition of radioligand binding, human melanocortin (MC4)” value (Human Melanocortin (MC4)) of the same compound?
The value was “− (“−” indicates less than 50% inhibition at 10 μM)”.

And the “A10: inhibition of radioligand binding, human opioid (ORL1)” value (Human opioid (ORL1); 10 µM)?
The value was “− (“−” indicates less than 50% inhibition at 10 μM)”.

What about the “A9: inhibition of radioligand binding, human neuropeptide Y (NPY-Y1)” value [2] of the same compound?
Its value is “− (“−” indicates less than 50% inhibition at 10 μM)”.

And the “A11: inhibition of radioligand binding, mouse urotensin (mUR2)” value (Mouse urotensin (mUR2))?
Its value is “− (“−” indicates less than 50% inhibition at 10 μM)”.

What about the “A8: inhibition of radioligand binding, human neurokinin (NK1)” value (Human neurokinin (NK1)) of the same compound?
Its value is “+ (“+” indicates greater than 50% inhibition at 10 μM)”.

What about the “A1: inhibition of radioligand binding, human δ-opioid (DOP)” value (Human δ-opioid (DOP)) of the same compound?
The value was “− (“−” indicates less than 50% inhibition at 10 μM)”.

What does the source list for CO[C@H]1[C@H](O)[C@@H](COCc2cccc(O)c2)OC(OCc2ccccc2)[C@@H]1NC(=O)CCCN (stereo partly drawn) [compound 153]?
A3 radioligand binding, percentage inhibition (Human Melanocortin (MC3)): − (“−” indicates less than 50% inhibition at 10 μM); A7 radioligand binding, percentage inhibition (Human μ-opioid (MOP)): − (“−” indicates less than 50% inhibition at 10 μM); A6 radioligand binding, percentage inhibition ([1]; [125I]-S36057): − (“−” indicates less than 50% inhibition at 10 μM); A2 radioligand binding, percentage inhibition (Human κ-Opioid (KOP)): − (“−” indicates less than 50% inhibition at 10 μM); A5 radioligand binding, percentage inhibition (Human melanocortin (MC5)): − (“−” indicates less than 50% inhibition at 10 μM); A4 radioligand binding, percentage inhibition (Human Melanocortin (MC4)): − (“−” indicates less than 50% inhibition at 10 μM); A10 radioligand binding, percentage inhibition (Human opioid (ORL1)): − (“−” indicates less than 50% inhibition at 10 μM); A9 radioligand binding, percentage inhibition [2]: − (“−” indicates less than 50% inhibition at 10 μM); A11 radioligand binding, percentage inhibition (Mouse urotensin (mUR2)): − (“−” indicates less than 50% inhibition at 10 μM); A8 radioligand binding, percentage inhibition (Human neurokinin (NK1)): + (“+” indicates greater than 50% inhibition at 10 μM); A1 radioligand binding, percentage inhibition (Human δ-opioid (DOP)): − (“−” indicates less than 50% inhibition at 10 μM)

What does the source list for NCCC(=O)N[C@H]1C(OCc2ccc3ccccc3c2)O[C@H](COCc2ccccc2)[C@@H](O)[C@@H]1OCc1ccc2ccccc2c1 (stereo partly drawn) [compound 444]?
A3: inhibition of radioligand binding (Human Melanocortin (MC3); human MC3 membranes, 10 µM): − (“−” indicates less than 50% inhibition at 10 μM); A7: inhibition of radioligand binding (Human μ-opioid (MOP); human MOP membranes, 10 µM): − (“−” indicates less than 50% inhibition at 10 μM); A6: inhibition of radioligand binding ([1]; [125I]-S36057, human MCH1 membranes, 10 µM): − (“−” indicates less than 50% inhibition at 10 μM); A2: inhibition of radioligand binding (Human κ-Opioid (KOP); human KOP membranes, 10 µM): − (“−” indicates less than 50% inhibition at 10 μM); A5: inhibition of radioligand binding (Human melanocortin (MC5); human MC5 membranes, 10 µM): − (“−” indicates less than 50% inhibition at 10 μM); A4: inhibition of radioligand binding (Human Melanocortin (MC4); human MC4 membranes, 10 µM): − (“−” indicates less than 50% inhibition at 10 μM); A10: inhibition of radioligand binding (Human opioid (ORL1); human ORL1 membranes, 10 µM): − (“−” indicates less than 50% inhibition at 10 μM); A9: inhibition of radioligand binding ([2]; human NPY-Y1 membranes): − (“−” indicates less than 50% inhibition at 10 μM); A11: inhibition of radioligand binding (Mouse urotensin (mUR2); mouse mUR2 membranes): − (“−” indicates less than 50% inhibition at 10 μM); A8: inhibition of radioligand binding (Human neurokinin (NK1); human NK1 membranes): + (“+” indicates greater than 50% inhibition at 10 μM); A1: inhibition of radioligand binding (Human δ-opioid (DOP); human DOP membranes): − (“−” indicates less than 50% inhibition at 10 μM)
